Experimental data from the supplement of paper PMC10307832.

Columns and labels:
Experiment in all cases: relative viability (nuclei count vs DMSO), 5 days (fraction); higher = more cells survive
Trametinib + Pictilisib = compound: CC(=O)Nc1cccc(-n2c(=O)n(C3CC3)c(=O)c3c(Nc4ccc(I)cc4F)n(C)c(=O)c(C)c32)c1 [Trametinib] + CS(=O)(=O)N1CCN(Cc2cc3nc(-c4cccc5[nH]ncc45)nc(N4CCOCC4)c3s2)CC1 [Pictilisib] (partner 1 µM)
Procedure, shortened: (§1)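 Cells from lung cancer lines were seeded into 1536-well plates and, one day later, dosed by pin tool. Treatments were either a single drug or a fixed dose of an anchor drug with five library-drug doses (not always all listed) in √10 steps. After 5 days, nuclei were stained in a one-step fixation (final 0.05% Triton X-100, 1% formaldehyde, 1 ug/ml Hoechst) and counted on 4× images, and relative viability is the treated-to-vehicle nuclei ratio, as the median of duplicate plates.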

Trametinib + Vorinostat = compound: CC(=O)Nc1cccc(-n2c(=O)n(C3CC3)c(=O)c3c(Nc4ccc(I)cc4F)n(C)c(=O)c(C)c32)c1 [Trametinib] + O=C(CCCCCCC(=O)Nc1ccccc1)NO [Vorinostat] (partner 1 µM)
Procedure, shortened: as §1

[1] = compound: CN1C=C(C2=CC=CC=C21)/C=C\3/C4=C(C=CC=N4)NC3=O + CC(=O)c1c(C)c2cnc(Nc3ccc(N4CCNCC4)cn3)nc2n(C2CCCC2)c1=O [Palbociclib] (partner 0.5 µM)
Procedure, shortened: as §1

[2] = compound: CN1C=C(C2=CC=CC=C21)/C=C\3/C4=C(C=CC=N4)NC3=O + C[C@]1(O)C[C@@H](c2nc(-c3ccc4ccc(-c5ccccc5)nc4c3)c3c(N)nccn32)C1 [Linsitinib] (partner 1 µM)
Procedure, shortened: as §1

For PC-14, the relative viability (Trametinib + Pictilisib; first compound 0.0025 µM) was 0.667, the relative viability (Trametinib + Pictilisib; first compound 0.007906 µM) was 0.546 and the relative viability (Trametinib + Pictilisib; first compound 0.025 µM) was 0.24. The relative viability (Trametinib + Pictilisib; first compound 0.07906 µM) was 0.141, the relative viability (Trametinib + Pictilisib; first compound 0.25 µM) was 0.107 and the relative viability (Trametinib + Vorinostat; first compound 0.0025 µM) was 0.781. It also gave a relative viability (Trametinib + Vorinostat; first compound 0.007906 µM) of 0.599, a relative viability (Trametinib + Vorinostat; first compound 0.025 µM) of 0.535 and a relative viability (Trametinib + Vorinostat; first compound 0.07906 µM) of 0.438. The relative viability (Trametinib + Vorinostat; first compound 0.25 µM) was 0.0917, the relative viability ([1]; first compound 0.02 µM) was 0.539 and the relative viability ([1]; first compound 0.06325 µM) was 0.536. For the same cell line, the relative viability ([1]; first compound 0.2 µM) was 0.55, the relative viability ([1]; first compound 0.6325 µM) was 0.617 and the relative viability ([1]; first compound 2 µM) was 0.545. For the same cell line, the relative viability ([2]; first compound 0.02 µM) was 0.95, the relative viability ([2]; first compound 0.06325 µM) was 0.933 and the relative viability ([2]; first compound 0.2 µM) was 0.988. For the same cell line, the relative viability ([2]; first compound 0.6325 µM) was 0.929 and the relative viability ([2]; first compound 2 µM) was 0.96.

With LCLC-103H the relative viability (Trametinib + Pictilisib; first compound 0.0025 µM) was 0.641, the relative viability (Trametinib + Pictilisib; first compound 0.007906 µM) was 0.547 and the relative viability (Trametinib + Pictilisib; first compound 0.025 µM) was 0.451. The relative viability (Trametinib + Pictilisib; first compound 0.07906 µM) was 0.458, the relative viability (Trametinib + Pictilisib; first compound 0.25 µM) was 0.406 and the relative viability (Trametinib + Vorinostat; first compound 0.0025 µM) was 0.808. For the same cell line, the relative viability (Trametinib + Vorinostat; first compound 0.007906 µM) was 0.636, the relative viability (Trametinib + Vorinostat; first compound 0.025 µM) was 0.699 and the relative viability (Trametinib + Vorinostat; first compound 0.07906 µM) was 0.631. The relative viability (Trametinib + Vorinostat; first compound 0.25 µM) was 0.588, the relative viability ([1]; first compound 0.02 µM) was 0.493 and the relative viability ([1]; first compound 0.06325 µM) was 0.411. For the same cell line, the relative viability ([1]; first compound 0.2 µM) was 0.479, the relative viability ([1]; first compound 0.6325 µM) was 0.471 and the relative viability ([1]; first compound 2 µM) was 0.472. It also gave a relative viability ([2]; first compound 0.02 µM) of 1.13, a relative viability ([2]; first compound 0.06325 µM) of 1.13 and a relative viability ([2]; first compound 0.2 µM) of 1.07. The relative viability ([2]; first compound 0.6325 µM) was 1.13 and the relative viability ([2]; first compound 2 µM) was 1.11.

COR-L23 was tested, and the relative viability (Trametinib + Pictilisib; first compound 0.0025 µM) was 0.72, the relative viability (Trametinib + Pictilisib; first compound 0.007906 µM) was 0.756 and the relative viability (Trametinib + Pictilisib; first compound 0.025 µM) was 0.555. For the same cell line, the relative viability (Trametinib + Pictilisib; first compound 0.07906 µM) was 0.439, the relative viability (Trametinib + Pictilisib; first compound 0.25 µM) was 0.308 and the relative viability (Trametinib + Vorinostat; first compound 0.0025 µM) was 0.463. For the same cell line, the relative viability (Trametinib + Vorinostat; first compound 0.007906 µM) was 0.465, the relative viability (Trametinib + Vorinostat; first compound 0.025 µM) was 0.529 and the relative viability (Trametinib + Vorinostat; first compound 0.07906 µM) was 0.421. For the same cell line, the relative viability (Trametinib + Vorinostat; first compound 0.25 µM) was 0.312, the relative viability ([1]; first compound 0.02 µM) was 0.314 and the relative viability ([1]; first compound 0.06325 µM) was 0.292. The relative viability ([1]; first compound 0.2 µM) was 0.28, the relative viability ([1]; first compound 0.6325 µM) was 0.237 and the relative viability ([1]; first compound 2 µM) was 0.299. The relative viability ([2]; first compound 0.02 µM) was 0.924, the relative viability ([2]; first compound 0.06325 µM) was 0.967 and the relative viability ([2]; first compound 0.2 µM) was 0.865. The relative viability ([2]; first compound 0.6325 µM) was 1.03 and the relative viability ([2]; first compound 2 µM) was 0.865.

H3255 showed a relative viability (Trametinib + Pictilisib; first compound 0.0025 µM) of 0.436, a relative viability (Trametinib + Pictilisib; first compound 0.007906 µM) of 0.344 and a relative viability (Trametinib + Pictilisib; first compound 0.025 µM) of 0.334. For the same cell line, the relative viability (Trametinib + Pictilisib; first compound 0.07906 µM) was 0.237, the relative viability (Trametinib + Pictilisib; first compound 0.25 µM) was 0.206 and the relative viability (Trametinib + Vorinostat; first compound 0.0025 µM) was 0.903. The relative viability (Trametinib + Vorinostat; first compound 0.007906 µM) was 0.799, the relative viability (Trametinib + Vorinostat; first compound 0.025 µM) was 0.509 and the relative viability (Trametinib + Vorinostat; first compound 0.07906 µM) was 0.709. It also gave a relative viability (Trametinib + Vorinostat; first compound 0.25 µM) of 0.905, a relative viability ([1]; first compound 0.02 µM) of 0.33 and a relative viability ([1]; first compound 0.06325 µM) of 0.327. The relative viability ([1]; first compound 0.2 µM) was 0.309, the relative viability ([1]; first compound 0.6325 µM) was 0.317 and the relative viability ([1]; first compound 2 µM) was 0.296. For the same cell line, the relative viability ([2]; first compound 0.02 µM) was 1.06, the relative viability ([2]; first compound 0.06325 µM) was 0.989 and the relative viability ([2]; first compound 0.2 µM) was 0.945. The relative viability ([2]; first compound 0.6325 µM) was 0.816 and the relative viability ([2]; first compound 2 µM) was 1.11.
